From ChEMBL document CHEMBL4138305, “HTS by NMR for the Identification of Potent and Selective Inhibitors of Metalloenzymes” (ACS Med Chem Lett, 2018) come the findings set out here.

In assay [1] the target is T1, Macrophage metalloelastase (Homo sapiens, UniProt P39900). Briefly: Inhibition of recombinant human MMP12 catalytic domain (Gly106 to […] residues) expressed in Escherichia coli BL21 codon plus using Mca-Pro-Leu-Gly-Leu-Dpa-Ala-Arg-NH2 as substrate by fluorescence assay.
Target sequence in this assay (P39900 whole entry, the tested form may be a part): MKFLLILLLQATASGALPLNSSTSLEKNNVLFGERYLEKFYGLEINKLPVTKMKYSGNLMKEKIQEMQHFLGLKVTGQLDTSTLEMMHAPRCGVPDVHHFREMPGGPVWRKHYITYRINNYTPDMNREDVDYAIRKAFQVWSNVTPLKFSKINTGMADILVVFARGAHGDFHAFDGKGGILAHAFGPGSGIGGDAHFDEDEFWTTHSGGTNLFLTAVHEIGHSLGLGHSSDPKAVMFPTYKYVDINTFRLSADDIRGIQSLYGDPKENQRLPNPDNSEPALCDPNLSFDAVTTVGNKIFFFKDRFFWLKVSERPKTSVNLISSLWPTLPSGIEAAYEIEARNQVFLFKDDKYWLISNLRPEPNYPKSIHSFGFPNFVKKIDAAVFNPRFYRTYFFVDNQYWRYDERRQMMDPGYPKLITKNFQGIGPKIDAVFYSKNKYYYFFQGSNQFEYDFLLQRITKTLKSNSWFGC
In assay [2] the target is T2, Interstitial collagenase (Homo sapiens) (UniProt P03956).
T2 sequence (whole entry): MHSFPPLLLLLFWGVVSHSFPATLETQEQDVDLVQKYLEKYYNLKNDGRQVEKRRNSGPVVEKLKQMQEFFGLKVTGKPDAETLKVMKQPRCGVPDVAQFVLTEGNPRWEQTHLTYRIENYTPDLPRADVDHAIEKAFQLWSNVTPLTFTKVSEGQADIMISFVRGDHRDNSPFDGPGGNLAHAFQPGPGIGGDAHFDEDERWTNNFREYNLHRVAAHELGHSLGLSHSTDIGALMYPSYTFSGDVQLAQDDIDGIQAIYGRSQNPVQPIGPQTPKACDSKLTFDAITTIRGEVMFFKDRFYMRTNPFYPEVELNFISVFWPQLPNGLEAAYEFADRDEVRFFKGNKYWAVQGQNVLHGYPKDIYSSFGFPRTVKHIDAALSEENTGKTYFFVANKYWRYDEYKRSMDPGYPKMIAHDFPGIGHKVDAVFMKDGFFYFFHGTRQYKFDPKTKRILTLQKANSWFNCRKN
Nature of the assay: Inhibition of MMP1 (unknown origin) at 1 uM.

Assay [3] deals with Matrix metalloproteinase-9 (Homo sapiens) (UniProt P14780). Briefly: Inhibition of MMP9 (unknown origin) at 1 uM.
The target in assay [4] is Matrix metalloproteinase-14 (Homo sapiens) (UniProt P50281). Nature of the assay: Inhibition of MMP14 (unknown origin) at 1 uM.
Assay [5] concerns the target Stromelysin-1 (Homo sapiens) (UniProt P08254). Nature of the assay: Inhibition of recombinant human C-terminal DYKDDDDK tagged MMP3 expressed in mammalian expression system at 1 uM relative to control.
Assay [6] deals with T1, Macrophage metalloelastase. As to conditions: 1 uM.
Target sequence in this assay (P39900 106-470 limits assumed): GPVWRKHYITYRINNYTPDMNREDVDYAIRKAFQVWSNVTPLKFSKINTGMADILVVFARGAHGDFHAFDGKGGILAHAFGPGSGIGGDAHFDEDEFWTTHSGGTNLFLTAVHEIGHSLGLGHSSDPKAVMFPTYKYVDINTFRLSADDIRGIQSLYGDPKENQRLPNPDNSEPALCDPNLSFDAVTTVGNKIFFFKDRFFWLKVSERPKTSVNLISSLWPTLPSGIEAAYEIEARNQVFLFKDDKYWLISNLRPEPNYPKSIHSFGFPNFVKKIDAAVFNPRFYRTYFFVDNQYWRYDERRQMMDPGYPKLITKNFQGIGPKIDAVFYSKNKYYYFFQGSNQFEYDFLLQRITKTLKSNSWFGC
Assay [7] concerns the target T1, Macrophage metalloelastase. Briefly: Binding affinity to recombinant human MMP12 catalytic domain (Gly106 to […] residues) expressed in Escherichia coli BL21 codon plus by 1D 1H aliphatic NMR spectra analysis.
Target sequence in this assay (P39900 whole entry, the tested form may be a part): as the sequence (P39900 whole entry, the tested form may be a part) above
Assay [8] concerns the target T1, Macrophage metalloelastase. Briefly: Binding affinity to recombinant human MMP12 catalytic domain (Gly106 to […] residues) expressed in Escherichia coli BL21 codon plus by 2D [15N,1H] HMQC spectra analysis.
Target sequence in this assay (P39900 whole entry, the tested form may be a part): as above
Assay [9] concerns the target T1, Macrophage metalloelastase. Nature of the assay: Inhibition of recombinant human C-terminal DYKDDDDK tagged MMP12 expressed in mammalian expression system at 55 to 100 nM.
Target sequence in this assay (P39900 106-470 limits assumed): as the sequence (P39900 106-470 limits assumed) above
In assay [10] the target is Stromelysin-1 (Homo sapiens) (UniProt P08254). Nature of the assay: Inhibition of recombinant human C-terminal DYKDDDDK tagged MMP3 expressed in mammalian expression system at 55 nM relative to control.

The source made the active and inactive calls. The rule behind the calls is not given here. Square brackets hold non-standard residues; d marks the D form. Peptide text beside a SMILES is read from it. * marks the point of attachment. d(hPhe) = N[C@H](CCc1ccccc1)C(=O)O; Bn = c1ccc(C*)cc1; NHOH = ON*

Chain of Stromelysin-1 (Homo sapiens) (P08254 100-477 limits assumed): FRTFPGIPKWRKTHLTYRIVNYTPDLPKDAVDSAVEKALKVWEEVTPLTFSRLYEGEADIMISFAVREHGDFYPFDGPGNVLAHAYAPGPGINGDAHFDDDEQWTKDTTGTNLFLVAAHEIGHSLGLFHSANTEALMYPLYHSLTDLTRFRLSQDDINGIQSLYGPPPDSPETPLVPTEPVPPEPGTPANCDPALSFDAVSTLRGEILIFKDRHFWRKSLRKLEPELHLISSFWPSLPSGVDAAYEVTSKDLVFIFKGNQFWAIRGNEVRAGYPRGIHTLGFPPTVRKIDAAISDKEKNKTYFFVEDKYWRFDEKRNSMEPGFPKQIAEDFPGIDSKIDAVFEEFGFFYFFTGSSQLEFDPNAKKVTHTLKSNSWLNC
Chain of Matrix metalloproteinase-9 (Homo sapiens) (P14780 whole entry): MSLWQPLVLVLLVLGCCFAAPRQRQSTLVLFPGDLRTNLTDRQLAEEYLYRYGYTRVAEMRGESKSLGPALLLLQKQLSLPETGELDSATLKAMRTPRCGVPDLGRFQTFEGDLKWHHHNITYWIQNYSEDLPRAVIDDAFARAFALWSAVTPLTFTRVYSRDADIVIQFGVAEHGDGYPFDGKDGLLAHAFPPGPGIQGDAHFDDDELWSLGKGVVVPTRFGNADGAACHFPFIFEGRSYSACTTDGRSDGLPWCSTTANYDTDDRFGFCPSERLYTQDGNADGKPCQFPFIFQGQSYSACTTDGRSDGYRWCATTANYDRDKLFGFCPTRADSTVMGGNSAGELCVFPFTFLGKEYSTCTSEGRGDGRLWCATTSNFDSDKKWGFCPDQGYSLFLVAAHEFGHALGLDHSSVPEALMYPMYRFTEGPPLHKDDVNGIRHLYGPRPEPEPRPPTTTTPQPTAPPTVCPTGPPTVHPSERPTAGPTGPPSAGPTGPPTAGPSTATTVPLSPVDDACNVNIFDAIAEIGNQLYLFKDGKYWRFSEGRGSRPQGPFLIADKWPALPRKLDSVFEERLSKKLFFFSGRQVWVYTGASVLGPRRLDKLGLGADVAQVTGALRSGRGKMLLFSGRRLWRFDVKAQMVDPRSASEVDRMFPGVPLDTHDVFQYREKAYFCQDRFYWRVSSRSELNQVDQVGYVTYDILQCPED

In the case of `CNC(=O)[C@H](Cc1c[nH]c2ccccc12)NC(=O)[C@@H](CC(=O)NO)CC(C)C` [ILOMASTAT], the half-inhibitory concentration (IC50) in [1] is 5.2 nM. For the same compound, the inhibition entry in [2], in assay [3], in assay [4], in [5] and in [6] was “Active” each time.

On to `CC(=O)N[C@@H](COCc1ccccc1)C(=O)N[C@H](CCc1ccccc1)C(=O)N[C@H](Cc1ccccc1)C(=O)NO` (Ac-Ser(Bn)-[d(hPhe)]-[dF]-{NHOH}), for which the Kd in [7] and in assay [8] was less than 50 nM in each case. Further, the IC50 in [1] amounted to 54.7 nM. Also, the inhibition entry in [9], in [2], in assay [3] and in [4] was “Active” each time. Besides, the inhibition in [5] was determined as 78%; in assay [10], 19%.

What is called IC50 is the concentration needed to halve the response being measured. As a reminder, the inhibition is the drop in the measured response relative to a control, in per cent. A word on the Kd: it is the concentration at which binding is half-saturated.
